Values after ≈ are worked out from the molar mass of the structure shown.
What was measured:
[1] = target: T1, α5-GABAA receptor (Homo sapiens, UniProt P18507+P31644); assay: Cell-level screening: whole cell patch clamp, inverse agonist efficacy on α5-GABAA receptor expressed in HEK293; type: cell-based; details: drug 100 nM, GABA 0.05 μM, HEK293 expressing α5, β3 and γ2 subunits, clamped at −60 mV; read-out: Compound inverse agonist efficacy %
T1 construct: expressed in transfected cells; host or cells: HEK293, monoclonal stably transfected line
T1 sequence (P31644 32-462): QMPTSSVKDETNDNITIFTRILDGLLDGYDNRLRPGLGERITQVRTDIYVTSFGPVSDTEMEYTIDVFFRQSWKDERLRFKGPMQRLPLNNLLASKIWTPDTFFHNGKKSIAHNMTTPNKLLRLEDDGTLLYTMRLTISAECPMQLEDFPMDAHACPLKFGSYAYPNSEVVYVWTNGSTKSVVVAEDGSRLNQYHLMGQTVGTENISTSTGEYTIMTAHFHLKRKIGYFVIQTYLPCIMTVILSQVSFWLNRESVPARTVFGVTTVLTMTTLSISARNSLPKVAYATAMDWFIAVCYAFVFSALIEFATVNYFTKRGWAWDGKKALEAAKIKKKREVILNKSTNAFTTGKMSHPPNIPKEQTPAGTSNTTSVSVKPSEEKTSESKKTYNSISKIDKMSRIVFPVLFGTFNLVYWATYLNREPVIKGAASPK
T1 sequence (P28472 26-473 partner): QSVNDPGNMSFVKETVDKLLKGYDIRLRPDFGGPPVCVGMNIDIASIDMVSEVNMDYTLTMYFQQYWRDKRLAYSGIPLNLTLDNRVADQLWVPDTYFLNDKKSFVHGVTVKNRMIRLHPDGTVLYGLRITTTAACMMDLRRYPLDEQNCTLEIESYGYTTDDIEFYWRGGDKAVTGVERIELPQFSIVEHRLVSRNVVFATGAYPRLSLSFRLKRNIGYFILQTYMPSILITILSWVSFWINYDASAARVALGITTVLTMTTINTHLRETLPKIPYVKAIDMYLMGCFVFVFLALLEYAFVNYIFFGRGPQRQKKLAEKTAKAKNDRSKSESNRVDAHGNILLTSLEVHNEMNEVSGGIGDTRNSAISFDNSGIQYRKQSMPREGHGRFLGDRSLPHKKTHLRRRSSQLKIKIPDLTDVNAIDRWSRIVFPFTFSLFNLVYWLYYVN
T1 sequence (P18507 40-467 isoform P18507-1 limits assumed): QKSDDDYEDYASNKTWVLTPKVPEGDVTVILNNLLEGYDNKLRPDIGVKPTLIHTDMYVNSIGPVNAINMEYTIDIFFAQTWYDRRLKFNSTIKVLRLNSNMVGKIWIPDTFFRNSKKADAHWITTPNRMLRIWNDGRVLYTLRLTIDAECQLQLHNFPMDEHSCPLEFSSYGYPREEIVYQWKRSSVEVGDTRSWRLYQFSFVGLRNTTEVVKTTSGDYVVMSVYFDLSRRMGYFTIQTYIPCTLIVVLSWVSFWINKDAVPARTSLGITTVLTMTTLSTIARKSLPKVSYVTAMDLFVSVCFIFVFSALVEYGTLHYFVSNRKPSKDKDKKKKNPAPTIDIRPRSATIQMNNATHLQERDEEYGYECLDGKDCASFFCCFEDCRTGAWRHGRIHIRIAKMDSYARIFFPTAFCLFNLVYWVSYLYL
Outline: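 Whole-cell patch clamp at −60 mV on HEK293 stably expressing α5β3γ2, pH 7.4 extracellular/CsCl internal solutions. Current evoked by 0.05 μM GABA, then compound in GABA solution; screening at 100 nM, dose-response 0.3–300 nM. Inverse agonist efficacy as % change of GABA current.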

[2] = Thermodynamic solubility in simulated intestinal fluid (TS in FaSSIF); type: physicochemical; details: thermodynamic from solid, 37° C.
Procedure: Simulated intestinal fluid FaSSIF: 54.76 mg of FaSSIF-V2 (Biorelevant, batch. V2FAS-0619-A, lot. V2FAS01) was weighed and added to 15 mL of a buffer solution. After dissolving, the solution was supplemented to 30 mL, and put at room temperature for 1 hour before use.
Waters e2695 HPLC high performance liquid chromatography, Mettler XSE105 analytical balance.
Firstly, a 10 mM stock solution was prepared with DMSO, and was diluted with a diluent (ACN: PB buffer 50:50) into 1 μM-200 μM as a standard solution.
Thermodynamic solubility in intestinal fluid (TS in FaSSIF) was simulated. About 0.3 mg of each sample was weighed and added to 1.5 mL of FaSSIF solution, with two parts in parallel, shaken at 1000 rpm at 37° C. for 4 hours, filtered. 1 mL of an initial filtrate was discarded, and 400 μL of the subsequent filtrate was taken. The filtrate was detected by high performance liquid chromatograph (UV).

SMILES | inhibition at 0.1 µM [1] | solubility thermodynamic at 4 h [2]
COc1cnnc(COc2nn3c(-c4cc(C)on4)nnc3cc2OC)c1 [Embodiment 49] | 37.2% | 143 µg/mL (≈ 386 µM)
COc1cc2nnc(-c3cc(C)on3)n2nc1OCc1ccc2c(n1)CN(C(C)C)C2 [Embodiment 102] | 47.3% | 30.8 µg/mL (≈ 73.1 µM)
COCCN1CCc2nc(COc3nn4c(-c5cc(C)on5)nnc4cc3OC)ccc2C1=O [Embodiment 110] | 58.6% | 46.6 µg/mL (≈ 100 µM)
COc1cc2nnc(-c3cc(C)on3)n2nc1OCc1ccc(C2(F)CN(C)C2)cn1 [Embodiment 124] | 43.9% | 365 µg/mL (≈ 859 µM)
COc1cc2nnc(-c3cc(C)on3)n2nc1OCc1ccc2nnc(C(C)C)n2n1 [Embodiment 214] | 34.9% | 237 µg/mL (≈ 562 µM)
CCS(=O)(=O)N1CCc2nc(COc3nn4c(-c5cc(C)on5)nnc4cc3OC)ccc2C1 [Embodiment 210] | 43.4% | 47 µg/mL (≈ 96.8 µM)
CCNCc1ccc(COc2nn3c(-c4cc(C)on4)nnc3cc2OC)nc1 [Embodiment 21] | 36.3% | 519 µg/mL (≈ 1310 µM)
COc1cc2nnc(-c3cc(C)on3)n2nc1OCc1ccc2c(cnn2C2CCOC2)n1 (stereo not shown) [Embodiment 232] | 53.4% | 59 µg/mL (≈ 131 µM)
COCCN1CCc2nc(COc3nn4c(-c5cc(C)on5)nnc4cc3OC)ccc2C1 [Embodiment 80] | 47.2% | 195 µg/mL (≈ 432 µM)
COc1cc2nnc(-c3cc(C)on3)n2nc1OCc1ccc2c(n1)CCN(C(=O)C(C)(C)C)C2 [Embodiment 206] | 44.7% | 34.8 µg/mL (≈ 72.8 µM)
COc1cc2nnc(-c3cc(C)on3)n2nc1OCc1cnccn1 [Embodiment 19] | 35.4% | 49.2 µg/mL (≈ 145 µM)
COc1cc2nnc(-c3cc(C)on3)n2nc1OCc1ccc2c(n1)CCN(C1(CC#N)COC1)C2 [Embodiment 114, 2-(3-(2-(((7-Methoxy-3-(5-methylisoxazol-3-yl)-[1,2,4]triazolo[4,3-b]pyridazin-6-yl)oxy)methyl)-7,8-dihydro-1,6-naphthyridin-6(5H)-yl)oxetan-3-yl)acetonitrile] | 36% | 139 µg/mL (≈ 284 µM)
COc1cc2nnc(-c3cc(C)on3)n2nc1OCc1ccc2ncn(C3CCOCC3)c2n1 [Embodiment 247] | 60.4% | 32.7 µg/mL (≈ 70.8 µM)
COCCn1ccc2nc(COc3nn4c(-c5noc(C)n5)nnc4cc3OC)ccc2c1=O [Embodiment 130] | 39.9% | 30.9 µg/mL (≈ 66.5 µM)
COc1cc2nnc(-c3cc(C)on3)n2nc1OCc1ccn2c(C3CCOCC3)nnc2n1 [Embodiment 217] | 45.6% | 57.6 µg/mL (≈ 124 µM)
COc1cc2nnc(-c3cc(C)on3)n2nc1OCc1ncnn1C [Embodiment 1, 3-(7-Methoxy-6-((1-methyl-1H-1,2,4-triazol-5-yl)methoxy)-[1,2,4]triazolo[4,3-b]pyridazin-3-yl)-5-methylisoxazole] | 41.9% | 146 µg/mL (≈ 427 µM)
COc1cc2nnc(-c3cc(C)on3)n2nc1OCc1ccc(OCC2(C)COC2)nn1 [Embodiment 150] | 46.2% | 263 µg/mL (≈ 598 µM)
COc1cc2nnc(-c3cc(C)on3)n2nc1OCc1ccc(OC2CCOCC2)cn1 [Embodiment 174] | 43.5% | 35.4 µg/mL (≈ 80.8 µM)
COc1cc2nnc(-c3cc(C)on3)n2nc1OCc1ccc2c(n1)CCN(C1CN(C(=O)C3CC3)C1)C2 [Embodiment 198] | 55.9% | 204 µg/mL (≈ 395 µM)
COc1ccc(COc2nn3c(-c4cc(CO)on4)nnc3cc2OC)nc1 [Embodiment 47, (3-(7-Methoxy-6-((5-methoxypyridin-2-yl)methoxy)-[1,2,4]triazolo[4,3-b]pyridazine-3-yl)isoxazol-5-yl)methanol] | 45.2% | 40.4 µg/mL (≈ 105 µM)
COc1cc2nnc(-c3cc(C)on3)n2nc1OCc1ccc2c(n1)CCN(CC(=O)N1CCCC1)C2 [Embodiment 189] | 52.4% | 75.8 µg/mL (≈ 150 µM)
COc1cc2nnc(-c3cc(C)on3)n2nc1OCc1ccc2nn(C3CN(C)C3)cc2n1 [Embodiment 233] | 41.3% | 245 µg/mL (≈ 547 µM)
COc1cc2nnc(-c3cc(C)on3)n2nc1OCc1ccc2c(n1)CCNC2 [Embodiment 78] | 43.4% | 255 µg/mL (≈ 648 µM)

SMILES | inhibition at 0.1 µM [1] | solubility thermodynamic at 4 h [2]
COCc1cccc(COc2nn3c(-c4cc(C)on4)nnc3cc2OC)n1 [Embodiment 50] | 38.8% | 83 µg/mL (≈ 217 µM)
COc1cc2nnc(-c3cc(C)on3)n2nc1OCc1ccc2nccn2n1 [Embodiment 105] | 49.3% | –
COc1cc2nnc(-c3cc(C)on3)n2nc1OCc1ccc2c(n1)CNC2=O [Embodiment 89] | 47.2% | –
COc1cc2nnc(-c3cc(C)on3)n2nc1OCc1ccc2c(ccn2C2COC2)n1 [Embodiment 250] | 47.4% | –
CCNC(=O)c1ccc(COc2nn3c(-c4cc(C)on4)nnc3cc2OCC)nc1 [Embodiment 12, 6-(((7-Ethoxy-3-(5-methylisoxazol-3-yl)-[1,2,4]triazolo[4,3-b]pyridazin-6-yl)oxy)methyl)-N-ethylnicotinamide] | 29.6% | –
COc1cc2nnc(-c3cc(C)on3)n2nc1OCc1ccc2c(n1)CN(CCC#N)C2 [Embodiment 256, 3-(2-(((7-Methoxy-3-(5-methylisoxazol-3-yl)-[1,2,4]triazolo[4,3-b]pyridazin-6-yl)oxy)methyl)-5,7-dihydro-6H-pyrrolo[3,4-b]pyridin-6-yl)propanenitrile] | 40.2% | –
COc1cccnc1COc1nn2c(-c3cc(C)on3)nnc2cc1OC [Embodiment 52] | 38% | –
COc1cc2nnc(-c3cc(C)on3)n2nc1OCc1cccc(Cl)n1 [Embodiment 18] | 23% | –
COc1cnc(COc2nn3c(-c4cc(C)on4)nnc3cc2OC)cc1OC [Embodiment 60] | 45.8% | –
COc1cc2nnc(-c3cc(C)on3)n2nc1OCc1ccc2c(cnn2C2CCOCC2)n1 [Embodiment 239] | 48% | –
COc1cc2nnc(-c3cc(C)on3)n2nc1OCc1ccc2c(n1)CCN(C1CN(C(C)=O)C1)C2 [Embodiment 199, 1-(3-(2-(((7-Methoxy-3-(5-methylisoxazol-3-yl)-[1,2,4]triazolo[4,3-b]pyridazin-6-yl)oxy)methyl)-7,8-dihydro-1,6-naphthyridin-6(5H)-yl)azetidin-1-yl)ethan-1-one] | 56.8% | –
COc1cc2nnc(-c3cc(C)on3)n2nc1OCc1ccc(OC(C)C)cn1 [Embodiment 25] | 34.1% | –
COc1cc2nnc(-c3cc(C)on3)n2nc1OCc1ccc(C2CC2)cn1 [Embodiment 34] | 38% | –
COCCn1cc2nc(COc3nn4c(-c5cc(C)on5)nnc4cc3OC)ccc2n1 [Embodiment 240] | – | 43.5 µg/mL (≈ 99.7 µM)
COc1cc2nnc(-c3cc(C)on3)n2nc1OCc1ccc2nn(C3COC3)cc2n1 [Embodiment 226, 3-(7-Methoxy-6-((2-(oxetan-3-yl)-2H-pyrazolo[4,3-b]pyridin-5-yl)methoxy)-[1,2,4]triazolo[4,3-b]pyridazin-3-yl)-5-methylisoxazole] | 45.9% | –
COc1cc2nnc(-c3cc(C)on3)n2nc1OCc1cccn(C)c1=O [Embodiment 74] | 40.4% | –
COc1cnc(COc2nn3c(-c4cc(C)on4)nnc3cc2OC)cn1 [Embodiment 44] | 44.8% | –
CCn1cccc(COc2nn3c(-c4cc(C)on4)nnc3cc2OC)c1=O [Embodiment 76] | 41.6% | –
COc1cc2nnc(-c3cc(C)on3)n2nc1OCc1ccc2nn(C)cc2n1 [Embodiment 237] | 57.9% | –
COc1cc2nnc(-c3cc(C)on3)n2nc1OCc1cccc(C(F)(F)F)n1 [Embodiment 45] | 42.4% | –
COc1cc2nnc(-c3cc(C)on3)n2nc1OCc1ccc(C#N)cn1 [Embodiment 41] | 39.4% | –
COCCOc1ccnc(COc2nn3c(-c4cc(C)on4)nnc3cc2OC)c1 [Embodiment 10] | 37.1% | –
COc1ccc(COc2nn3c(-c4cc(C)on4)nnc3cc2OC)nc1 [Embodiment 37] | 42.1% | –
